{"source": "paper PMC9531438", "about": "“Preclinical development of carrier-free prodrug nanoparticles for enhanced antitumor therapeutic potential with less toxicity” (Journal of Nanobiotechnology, 2022)", "key": {"H9C2 cells": {"test_system": "H9C2 cells", "assay": "CCK-8 cytotoxicity", "format": "cell-based, rat", "conditions": "48 h treatment, normal cardiomyocytes", "protocol": "(§1) The cytotoxicity of F68-FDOX was assessed via a cell counting kit-8 (CCK-8) assays. First, 1 × 10^5 HT29, MDA-MB231, KPC960 or H9C2 cells were seeded into 96-well cell culture plates. […] Finally, cell viability was measured by a microplate reader (VERSAmaxTM; Molecular Devices Corp., USA) with 450 nm of wavelength."}, "KPC960 cells": {"test_system": "KPC960 cells", "assay": "CCK-8 cytotoxicity", "format": "cell-based, human", "conditions": "48 h treatment", "protocol": "as §1"}, "BALB/c mice [1]": {"test_system": "BALB/c mice", "assay": "Toxicity study after single-dosage", "description": "(§4) The safety of F68-FDOX treatment was assessed by histological and hematological analyses. Briefly, DOX (4 mg/kg), FRRG-DOX (4 mg/kg based on DOX contents) or F68-FDOX (4 mg/kg based on DOX contents) were intravenously injected into BALB/c mice. On day 9 after treatments, major organs were collected from mice, and structural abnormalities and apoptosis in organ tissues were assessed by staining with H&E or TUNEL, respectively. In case of hematological analyses, blood samples were collected from mice on day 9. For the complete blood count (CBC) analyses, each blood sample was mixed with EDTA, and a portion of blood sample was centrifuged at 2100 rpm for 20 min to obtain blood plasma. The following factors in blood samples were measured; albumin/globulin ratio (A/G), troponin-I, albumin (Alb), total protein (TP), alanine aminotransferase (ALT), total cholesterol (T-Chol), blood urea nitrogen (BUN), alkaline phosphatase (ALP), red blood cell (RBC), white blood cell (WBC), mean corpuscular hemoglobin (MCH), mean corpuscular volume (MCV), hematocrit (HCT), hemoglobin (HGB) and platelet (PLT). To assess the safety of F68-FDOX treatment after multiple-dosage, DOX (4 mg/kg), FRRG-DOX (4 mg/kg based on DOX contents) or F68-FDOX (4 mg/kg based on DOX contents) were injected into mice once every three days. Then, histological and hematological analyses were performed as described above."}, "[2]": {"assay": "Pharmacokinetics after intravenous injection", "format": "in vivo, mice", "protocol": "(§2) The 6-week male BALB/c and BALB/c nu/nu mice were purchased from NaraBio (Gyeonggi-do, Republic of Korea). Mice were bred under pathogen-free conditions in the Korea Institute of Science and Technology (KIST). All experiments with animals were performed in compliance with the relevant laws and institutional guidelines of Institutional Animal Care and Use Committee (IACUC; approved number of 2020-123) in Korea Institute of Science and Technology (KIST). […] After treatment, blood samples were collected from mice by cardiac puncture after deep anesthesia at pre-determined times, followed by analysis with HPLC with fluorescence detector. The PK parameters including area under the curves (AUC), clearance (CL), volume of distribution (Vd) and half-life (t1/2) were calculated using a WinNonlin software. […] The fluorescence intensities in the tumor regions were quantified using a Living Image software (PerkinElmer, Waltham, MA, USA). The ex vivo NIRF imaging of collected major organs after 9 h of injection was also performed using IVIS Lumina Series III system. […] For this analysis, each tissue was cut into 8-μm sections using rotary microtome and analyzed via confocal laser scanning microscope (CLSM) equipped with 405 diode (405 nm) and HeNe-Red (633 nm) lasers."}, "HT29 tumor-bearing mice [3]": {"test_system": "HT29 tumor-bearing mice", "assay": "Pharmacodynamics, histological analysis of organs and tumor tissues (CLSM)", "format": "in vivo", "conditions": "i.v. 4 mg/kg based on DOX, 9 h after injection", "protocol": "as §2"}, "BALB/c mice [4]": {"test_system": "BALB/c mice", "assay": "Toxicity study after multi-dosage", "format": "in vivo", "description": "as §4"}, "mice": {"test_system": "mice", "conditions": "5 mg/kg free DOX two times (Total 10 mg/kg); ref [42]; cited from earlier work", "protocol": "[…] […] Even though same dose of equal drugs was administered into the mice, the outcomes can be varied according to the not only the number and intervals of the administration, but also different reactivity by species, feeding environment and age of the ..."}, "[5]": {"test_system": "colon (HT29) tumor tissues", "assay": "Annexin V staining of single tumor cells (flow cytometry)", "format": "in vivo, mice", "conditions": "day 9 after treatment, mean", "protocol": "(§3) The antitumor activity was evaluated in colon, breast and pancreatic cancer models, which were prepared by subcutaneous injection with 1 × 10^7 HT29, MDA-MB231 or KPC960 cells, respectively. […] The mice were treated once every three days, and tumor volumes were calculated as the largest diameter × smallest diameter^2 × 0.53, every 2 days. The mice with a tumor size of 2000 mm^3 or higher were counted as dead. To analyze the antitumor activity in a single cell level, the tumor tissues were collected on day 9, and single cell were isolated from the tumor tissues using a Tumor Dissociation Kit. After cell counting, single cells were stained with Annexin V for 1 h in room temperature and analyzed via flow cytometer."}, "HT29 tumor": {"test_system": "HT29 tumor", "assay": "Antitumor activity, colon tumor model", "format": "in vivo", "protocol": "as §3"}, "[6]": {"format": "in vitro ADME, mouse", "excerpt": "The carrier-free doxorubicin (DOX) prodrug nanoparticles were designed as an alternative formulation to overcome several problems of conventional nano-sized drug delivery system in the terms of technical- and industrial-aspects. […] This absolutely simplified one-step synthesis protocol allowed 100 g batch of preparation as described in “Methods” section. […] In addition, their precise and concise structure allow easy quality control (QC) after synthesis; thus, we could verify the successful preparation of FRRG-DOX by confirming chemical structure, exact mass and purity via ^1H NMR, MALDI-TOF (calculated mass: 1102.17 Da, measured mass: 1102.595 m/z) and HPLC (99%), respectively (Additional file 1: Fig. S2). Importantly, FRRG-DOX molecules self-assembled into prodrug nanoparticles by its intermolecular π-π stacking hydrophobic interactions without any additional carrier materials, resulting in high drug loading (> 50%). […] This was clearly supported by MALDI-TOF measurement, wherein the molecular weights of G-DOX (calculated mass: 600.58 Da, measured mass: 656.4 m/z [M + Li] and 657.4 m/z [M + Li + H]) were confirmed at the newly appeared peak (13 min) in the HPLC spectrum after incubation of F68-FDOX with cathepsin B (Additional file 1: Fig. S6). […]"}, "HT29 tumor-bearing mice [7]": {"test_system": "HT29 tumor-bearing mice", "conditions": "mouse, in vivo, iv, 4 mg/kg", "protocol": "as §2"}, "BALB/c mice [8]": {"test_system": "BALB/c mice", "conditions": "mouse, in vivo, iv, 10 mg/kg", "description": "as §4"}, "[9]": {"format": "physicochemical", "protocol": "Finally, we developed F68-FDOX as a lyophilized powder form and evaluated the long-term storage stability of lyophilized F68-FDOX powder stored for 3, 6, 12 months in the low (− 4 °C), room (37 °C) or accelerated (60 °C) condition; for these studies, size distribution, chemical structure and purity were analyzed after reconstitution of lyophilized powder stored at each condition (Additional file 1: Fig. S7–S9). […] Taken together, the manufacturing operation for mass production of F68-FDOX was optimized for preclinical development, and their physicochemical characterization, such as size distribution, particle stability, target enzyme-specificity, and even the long-term storage stability was successfully evaluated in vitro.\nTo prepare carrier-free prodrug nanoparticles, the cancer-specific prodrug was simply synthesized by conjugating cathepsin B-specific cleavable tetrapeptide (Phe-Arg-Arg-Gly; FRRG) to DOX via one-step reaction. […] The FRRG-DOX was purified using Sep-Pak C18 column chromatography and the resulting filtrate was analyzed via RP-HPLC (Agilent 1200 Series HPLC System). […] The long-term storage stability of FRRG-DOX power was assessed after storage of 3, 6, 12 months in the low (− 4 °C), room (37 °C) or accelerated (60 °C) condition, followed by analysis of size, chemical structure and purity as described above. […]"}, "[10]": {"conditions": "BALB/c mice, i.v. 10 mg/kg based on DOX, single dose"}, "[11]": {"conditions": "mice, i.v., 4 mg/kg based on DOX contents, WinNonlin"}, "[12]": {"conditions": "treatment five times with 3 days-intervals"}}, "note": "Read-outs that look alike come from different tables or passages of the source. Where a SMILES comes first, the peptide text is derived from it. The star is where a group is joined. Doxorubicin(3'-N) = COc1cccc2c1C(=O)c1c(O)c3c(c(O)c1C2=O)C[C@@](O)(C(=O)CO)C[C@@H]3O[C@H]1C[C@H](N*)[C@H](O)[C@H](C)O1"}
{"molecule": "COc1cccc2c1C(=O)c1c(O)c3c(c(O)c1C2=O)C[C@@](O)(C(=O)CO)C[C@@H]3O[C@H]1C[C@H](N)[C@H](O)[C@H](C)O1", "note": "[DOX, doxorubicin]", "values": [{"measurement": "IC50", "setting": "H9C2 cells", "value": 13.8, "unit": "µM"}, {"measurement": "IC50", "setting": "KPC960 cells", "value": 7.32, "unit": "µM"}, {"measurement": "body weight change, single-dosage", "setting": "BALB/c mice [1]; [10]", "value": "gradually reduced"}, {"measurement": "time within which all mice were dead, single-dosage", "setting": "BALB/c mice [1]; [10]", "value": "≤ 9", "unit": "days"}, {"measurement": "complete blood count (CBC) analyses, single-dosage", "setting": "BALB/c mice [1]; day 9, i.v. 10 mg/kg", "value": "severe leukopenia, oligocythemia and thrombocytopenia"}, {"measurement": "serological examination (BUN, ALT, troponin-I), single-dosage", "setting": "BALB/c mice [1]; day 9, i.v. 10 mg/kg", "value": "severe cardiac, renal and hepatic toxicity"}, {"measurement": "major organ tissues stained with H&E or TUNEL, single-dosage", "setting": "BALB/c mice [1]; day 9, i.v. 10 mg/kg based on DOX", "value": "elevated structural abnormalities with apoptosis"}, {"measurement": "CL", "setting": "[2]; [11]", "value": "3.02 ± 0.638", "unit": "mL/min/kg"}, {"measurement": "Vd", "setting": "[2]; [11]", "value": "0.304 ± 0.0976", "unit": "L/kg"}, {"measurement": "half-life (t1/2)", "setting": "[2]; [11]", "value": "1.33 ± 0.23", "unit": "h"}, {"measurement": "AUClast", "setting": "[2]; mice, i.v., 4 mg/kg based on DOX contents, blood, HPLC with fluorescence detector, WinNonlin", "value": "22.18 ± 4.52", "unit": "µg·h/mL"}, {"measurement": "distribution in major organs and tumor tissues (histology)", "setting": "HT29 tumor-bearing mice [3]", "value": "non-specifically distributed in all the major organs and low tumor accumulation"}, {"measurement": "histology of liver, spleen and heart tissues, multi-dosage", "setting": "BALB/c mice [4]; day 7, H&E", "value": "severe tissue damages"}, {"measurement": "hematological parameters, multi-dosage", "setting": "BALB/c mice [4]; day 7, treatment with 3 days-intervals", "value": "remarkably got out from the normal range"}, {"measurement": "body weight change, multi-dosage", "setting": "BALB/c mice [4]; [12]", "value": "severe body weight loss"}, {"measurement": "time within which all mice were dead, multi-dosage", "setting": "BALB/c mice [4]; [12]", "value": "≤ 7", "unit": "days"}, {"measurement": "time within which all mice were dead", "setting": "mice", "value": "within two weeks"}, {"measurement": "percentage of apoptotic (Annexin V-positive) tumor cells", "setting": "[5]", "value": "17.7 ± 1.51", "unit": "%"}, {"measurement": "colon tumor volume on day 9 after treatment", "setting": "HT29 tumor; HT29 s.c. tumor, i.v. 4 mg/kg based on DOX once every three days", "value": "478.75 ± 49.87", "unit": "mm^3"}, {"measurement": "time within which all mice were dead (tumor model)", "setting": "HT29 tumor; HT29 tumor-bearing mice, i.v. 4 mg/kg once every three days", "value": "≤ 9", "unit": "days"}]}
{"molecule": "COc1cccc2c1C(=O)c1c(O)c3c(c(O)c1C2=O)C[C@@](O)(C(=O)CO)C[C@@H]3O[C@H]1C[C@H](NC(=O)CNC(=O)[C@H](CCCNC(=N)N)NC(=O)[C@H](CCCNC(=N)N)NC(=O)[C@H](Cc2ccccc2)NC(C)=O)[C@H](O)[C@H](C)O1", "note": "[FRRG-DOX] (Ac-FRRG-{Doxorubicin(3'-N)})", "values": [{"measurement": "body weight change, single-dosage", "setting": "BALB/c mice [1]; [10]", "value": "no significant body weight loss"}, {"measurement": "AUCinf", "setting": "[2]; mouse, in vivo, iv, 4 mg/kg", "value": "407.71 ± 85.81", "unit": "µg·h/mL"}, {"measurement": "AUClast", "setting": "[2]; mouse, in vivo, iv, 4 mg/kg", "value": "345.99 ± 68.9", "unit": "µg·h/mL"}, {"measurement": "CL", "setting": "[2]; mouse, in vivo, iv, 4 mg/kg", "value": "0.1692 ± 0.0405", "unit": "mL/min/kg"}, {"measurement": "Vd", "setting": "[2]; mouse, in vivo, iv, 4 mg/kg", "value": "0.0832 ± 0.03185", "unit": "L/kg"}, {"measurement": "half-life (t1/2)", "setting": "[2]; mouse, in vivo, iv, 4 mg/kg", "value": "7.96 ± 4.59", "unit": "h"}]}
{"molecule": "Phe-Arg-Arg-Gly [F68-FDOX]", "values": [{"measurement": "time of high stability without significant changes of size and polydispersity index in mouse serum", "setting": "[6]", "value": "≥ 6", "unit": "days"}, {"measurement": "fluorescence intensity in tumor tissues relative to FRRG-DOX (NIRF)", "setting": "HT29 tumor-bearing mice [7]", "value": "2.42–2.71 fold"}, {"measurement": "all hematological parameters, single-dosage", "setting": "BALB/c mice [8]", "value": "in normal range"}, {"measurement": "body weight change, single-dosage", "setting": "BALB/c mice [8]", "value": "no significant body weight loss"}, {"measurement": "major organ tissues stained with H&E or TUNEL, single-dosage", "setting": "BALB/c mice [8]", "value": "did not induce noticeable tissue damages"}, {"measurement": "AUCinf", "setting": "[2]; mouse, in vivo, iv, 4 mg/kg", "value": "1367.44 ± 14.35", "unit": "µg·h/mL"}, {"measurement": "AUClast", "setting": "[2]; mouse, in vivo, iv, 4 mg/kg", "value": "1281.17 ± 240", "unit": "µg·h/mL"}, {"measurement": "CL", "setting": "[2]; mouse, in vivo, iv, 4 mg/kg", "value": "0.0488 ± 0.0005", "unit": "mL/min/kg"}, {"measurement": "Vd", "setting": "[2]; mouse, in vivo, iv, 4 mg/kg", "value": "0.1 ± 0.00269", "unit": "L/kg"}, {"measurement": "time for which a detectable amount remained in the body", "setting": "[2]; mouse, in vivo, iv, 4 mg/kg", "value": 96, "unit": "h"}, {"measurement": "stability 24 h after reconstitution (size distribution, chemical structure, purity)", "setting": "[9]", "value": "no significant changes"}, {"measurement": "histology of liver, spleen and heart tissues, multi-dosage", "setting": "BALB/c mice [4]; mouse, in vivo", "value": "without damage to the normal organs"}]}
